# Test results from patent US20140030808A1, “Method for Cellular RNA Expression” (BIONTECH AG, priority 2010, published 2014).
# Read-outs that look alike come from different tables or passages of the source.
# System: Primary human foreskin fibroblasts (BJ, CCD1079Sk, HFF)
# Format: cell-based
# Conditions: 2 μM; for luciferase expression after transient treatment: BJ and CCD1079SK
structure (smiles),measurement,setting,value
Nc1ncc2[nH]cnc2n1 [2-aminopurine],luciferase expression after transient treatment,7 h incubation period,did not results in a significant increase of luciferase expression
same,luciferase expression after transient treatment,24 h treatment,rapidly reversed after removal of the inhibitors
same,luciferase expression after transient treatment,48 h treatment,less efficient than a permanent treatment
same,duration of high luciferase expression levels,permanent inhibition,5 days
